# Assay results reported in patent US10597388B2, “Pyridazinone herbicides” (FMC CORPORATION, priority 2014, dated 2020).
# Key:
# Assay in all cases: Test D controlled growth environment herbicide test, pre- and postemergence
# Assay type in all cases: in vivo
# [1] = test system: galium (catchweed bedstraw, Galium aparine)
# In short: (§1)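 Species sown in silt loam and sprayed preemergence, or grown in peat-based medium to 2–18 cm (1- to 4-leaf stage) and sprayed postemergence, with compounds in non-phytotoxic solvent plus surfactant. Visual injury scored versus controls after 14–21 d in a controlled environment, 0 (no effect) to 100 (complete control).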
# [2] = test system: windgrass (Apera spica-venti)
# In short: as §1
# [3] = test system: chamomile (scentless chamomile, Matricaria inodora)
# In short: as §1
# [4] = test system: pigweed (Amaranthus retroflexus)
# In short: as §1
# [5] = test system: field poppy (Papaver rhoeas)
# In short: as §1
# [6] = test system: bluegrass (annual bluegrass, Poa annua)
# In short: as §1
# [7] = test system: barley, winter (winter barley, Hordeum vulgare)
# In short: as §1
# [8] = test system: lambsquarters (Chenopodium album)
# In short: as §1
# [9] = test system: canarygrass (Phalaris minor)
# In short: as §1
# [10] = test system: barley, spring (spring barley, Hordeum vulgare)
# In short: as §1
# [11] = test system: buckwheat, wild (wild buckwheat, Polygonum convolvulus)
# In short: as §1
# kochia (Kochia scoparia) = test system: kochia (Kochia scoparia)
# In short: as §1
# [12] = test system: field violet (Viola arvensis)
# In short: as §1
# [13] = test system: radish, wild (wild radish, Raphanus raphanistrum)
# In short: as §1
# [14] = Postemergence, 31 g ai/ha, scale 0 to 100 (0 no effect, 100 complete control)
# [15] = Postemergence, 125 g ai/ha, visual rating on scale 0 (no effect) to 100 (complete control), 14 to 21 d
# [16] = Postemergence, 250 g ai/ha, scale 0 to 100 (0 no effect, 100 complete control)
# [17] = Preemergence, 62 g ai/ha, scale 0 to 100 (0 no effect, 100 complete control)
# [18] = Preemergence, 125 g ai/ha, scale 0 to 100 (0 no effect, 100 complete control)
# [19] = Preemergence, 250 g ai/ha, scale 0 to 100, 0 no effect, 100 complete control
# [20] = postemergence, 62 g ai/ha, scale 0 to 100, 0 no effect, 100 complete control
compound,measurement,setting,value
COC(=O)Oc1c(C)nn(C)c(=O)c1-c1c(C)sc2ccc(C)cc12 [Compound 80],Galium plant response rating,[1]; [14],90
same,"Plant response rating, Galium",[1]; [15],95
same,"Plant response rating, Galium",[1]; [16],100
same,"Plant response rating (scale of 0 to 100), Galium","[1]; Preemergence, 31 g ai/ha",25
same,"Plant response rating, Galium",[1]; [17],40
same,"Plant response rating, Galium",[1]; [18],80
same,"Plant response rating, Galium",[1]; [19],90
same,"Plant response rating, Galium",[1]; [20],95
same,Windgrass plant response rating,[2]; [14],75
same,"Plant response rating, Windgrass",[2]; [15],95
same,"Plant response rating, Windgrass",[2]; [16],98
same,"Plant response rating (scale of 0 to 100), Windgrass","[2]; Preemergence, 31 g ai/ha",75
same,"Plant response rating, Windgrass",[2]; [17],90
same,"Plant response rating, Windgrass",[2]; [18],95
same,"Plant response rating, Windgrass",[2]; [19],98
same,"Plant response rating, Windgrass",[2]; [20],90
same,Chamomile plant response rating,[3]; [14],80
same,"Plant response rating, Chamomile",[3]; [15],100
same,"Plant response rating, Chamomile",[3]; [16],100
same,"Plant response rating (scale of 0 to 100), Chamomile","[3]; Preemergence, 31 g ai/ha",95
same,"Plant response rating, Chamomile",[3]; [17],100
same,"Plant response rating, Chamomile",[3]; [18],100
same,"Plant response rating, Chamomile",[3]; [19],100
same,"Plant response rating, Chamomile",[3]; [20],95
same,Pigweed plant response rating,[4]; [14],100
same,"Plant response rating, Pigweed",[4]; [15],100
same,"Plant response rating, Pigweed",[4]; [16],100
same,"Plant response rating (scale of 0 to 100), Pigweed","[4]; Preemergence, 31 g ai/ha",100
same,"Plant response rating, Pigweed",[4]; [17],100
same,"Plant response rating, Pigweed",[4]; [18],100
same,"Plant response rating, Pigweed",[4]; [19],100
same,"Plant response rating, Pigweed",[4]; [20],100
same,Field Poppy plant response rating,[5]; [14],60
same,"Plant response rating, Field Poppy",[5]; [15],100
same,"Plant response rating, Field Poppy",[5]; [16],100
same,"Plant response rating (scale of 0 to 100), Field Poppy","[5]; Preemergence, 31 g ai/ha",90
same,"Plant response rating, Field Poppy",[5]; [17],100
same,"Plant response rating, Field Poppy",[5]; [18],100
same,"Plant response rating, Field Poppy",[5]; [19],100
same,"Plant response rating, Field Poppy",[5]; [20],80
same,Bluegrass plant response rating,[6]; [14],15
same,"Plant response rating, Bluegrass",[6]; [15],35
same,"Plant response rating, Bluegrass",[6]; [16],45
same,"Plant response rating (scale of 0 to 100), Bluegrass","[6]; Preemergence, 31 g ai/ha",20
same,"Plant response rating, Bluegrass",[6]; [17],55
same,"Plant response rating, Bluegrass",[6]; [18],75
same,"Plant response rating, Bluegrass",[6]; [19],75
same,"Plant response rating, Bluegrass",[6]; [20],35
same,"Barley, Winter plant response rating",[7]; [14],0
same,"Plant response rating, Barley, Winter",[7]; [15],5
same,"Plant response rating, Barley, Winter",[7]; [16],15
same,"Plant response rating (scale of 0 to 100), Barley, Winter","[7]; Preemergence, 31 g ai/ha",0
same,"Plant response rating, Barley, Winter",[7]; [17],0
same,"Plant response rating, Barley, Winter",[7]; [18],15
same,"Plant response rating, Barley, Winter",[7]; [19],45
same,"Plant response rating, Barley, Winter",[7]; [20],0
same,Lambsquarters plant response rating,[8]; [14],95
same,"Plant response rating, Lambsquarters",[8]; [15],100
same,"Plant response rating, Lambsquarters",[8]; [16],100
same,"Plant response rating (scale of 0 to 100), Lambsquarters","[8]; Preemergence, 31 g ai/ha",100
same,"Plant response rating, Lambsquarters",[8]; [17],100
same,"Plant response rating, Lambsquarters",[8]; [18],100
same,"Plant response rating, Lambsquarters",[8]; [19],100
same,"Plant response rating, Lambsquarters",[8]; [20],100
same,Canarygrass plant response rating,[9]; [14],55
same,"Plant response rating, Canarygrass",[9]; [15],85
same,"Plant response rating, Canarygrass",[9]; [16],90
same,"Plant response rating (scale of 0 to 100), Canarygrass","[9]; Preemergence, 31 g ai/ha",85
same,"Plant response rating, Canarygrass",[9]; [17],90
same,"Plant response rating, Canarygrass",[9]; [18],90
same,"Plant response rating, Canarygrass",[9]; [19],100
same,"Plant response rating, Canarygrass",[9]; [20],80
same,"Barley, Spring plant response rating",[10]; [14],0
same,"Plant response rating, Barley, Spring",[10]; [15],15
same,"Plant response rating, Barley, Spring",[10]; [16],25
same,"Plant response rating (scale of 0 to 100), Barley, Spring","[10]; Preemergence, 31 g ai/ha",0
same,"Plant response rating, Barley, Spring",[10]; [17],0
same,"Plant response rating, Barley, Spring",[10]; [18],5
same,"Plant response rating, Barley, Spring",[10]; [19],0
same,"Plant response rating, Barley, Spring",[10]; [20],10
same,"Buckwheat, Wild plant response rating",[11]; [14],100
same,"Plant response rating, Buckwheat, Wild",[11]; [15],100
same,"Plant response rating, Buckwheat, Wild",[11]; [16],100
same,"Plant response rating (scale of 0 to 100), Buckwheat, Wild","[11]; Preemergence, 31 g ai/ha",0
same,"Plant response rating, Buckwheat, Wild",[11]; [17],25
same,"Plant response rating, Buckwheat, Wild",[11]; [18],20
same,"Plant response rating, Buckwheat, Wild",[11]; [19],20
same,"Plant response rating, Buckwheat, Wild",[11]; [20],100
same,Kochia plant response rating,kochia (Kochia scoparia); [14],100
same,"Plant response rating, Kochia",kochia (Kochia scoparia); [15],100
same,"Plant response rating, Kochia",kochia (Kochia scoparia); [16],100
same,"Plant response rating (scale of 0 to 100), Kochia","kochia (Kochia scoparia); Preemergence, 31 g ai/ha",35
same,"Plant response rating, Kochia",kochia (Kochia scoparia); [17],75
same,"Plant response rating, Kochia",kochia (Kochia scoparia); [18],100
same,"Plant response rating, Kochia",kochia (Kochia scoparia); [19],100
same,"Plant response rating, Kochia",kochia (Kochia scoparia); [20],100
same,Field Violet plant response rating,[12]; [14],90
same,"Plant response rating, Field Violet",[12]; [15],95
same,"Plant response rating, Field Violet",[12]; [16],100
same,"Plant response rating (scale of 0 to 100), Field Violet","[12]; Preemergence, 31 g ai/ha",55
same,"Plant response rating, Field Violet",[12]; [17],95
same,"Plant response rating, Field Violet",[12]; [18],100
same,"Plant response rating, Field Violet",[12]; [19],95
same,"Plant response rating, Field Violet",[12]; [20],85
same,"Radish, Wild plant response rating",[13]; [14],10
same,"Plant response rating, Radish, Wild",[13]; [15],50
same,"Plant response rating, Radish, Wild",[13]; [16],65
same,"Plant response rating (scale of 0 to 100), Radish, Wild","[13]; Preemergence, 31 g ai/ha",20
same,"Plant response rating, Radish, Wild",[13]; [17],75
same,"Plant response rating, Radish, Wild",[13]; [18],100
same,"Plant response rating, Radish, Wild",[13]; [19],100
same,"Plant response rating, Radish, Wild",[13]; [20],50
